Source: patent US11098027B2, “Therapeutic heterocyclic compounds” (Gilead Sciences, Inc., priority 2018, dated 2021)

Target: T1, IDO1 (Homo sapiens, UniProt P14902)
T1 construct: HeLa cells were treated with a test compound in the presence of IFNγ, which induces IDO1 expression; host or cells: H1-HeLa cells, IDO1 induced with IFNγ
Experiment: Cell-based (HeLa) assay for measurement of IDO1 inhibition (kynurenine levels in supernatant)
Conditions: H1-HeLa cells, IDO1 induced with IFNγ, 48 hour incubation, kynurenine read by absorbance at 480 nm; geometric mean of a minimum of four determinations
Protocol: Example B-1. Cell-Based (HeLa) Assay for Measurement of IDO1 Inhibition
To measure IDO1 inhibition in tissue culture, HeLa cells were treated with a test compound in the presence of IFNγ, which induces IDO1 expression. Following incubation, cell supernatants were assayed for kynurenine levels, an indicator of IDO1 activity.
The following day, the test compounds were added in DMSO (0.5% final) at various concentrations, and IDO1 was inducibly expressed by the addition of 50 uL/well of 50 ng/mL of INFγ (Peprotech #300-02) in cell plating media. As a positive control, 50 uL of the cell plating media without IFNγ was added to several wells. Following a 48 hour incubation, the plates were spun down at 1,200 RPM for 5 min at 10° C. 65 μL/well of the supernatant was then transferred to new 384-well plates (Thermo #262160) that contained 10 uL/well of 30% TCA (Sigma # TO699), and the plates were sealed and incubated at 60° C. for 30 min. The plates were then centrifuged for 15 min at 2,000 RPM at 10° C. 40 μL/well of the supernatant was transferred to new 384-well plates (Thermo #262160) and was reacted with 40 μL/well of 2% (w/v) p-dimethlyaminobenzaldehyde (Sigma #156417) in glacial acetic acid (Sigma #A6283). The reaction was incubated at room temperature for 10 min and absorbance at 480 nm was read using a PerkinElmer Envision plate reader.
Data in Table 1 were normalized based on positive (−IFNγ) and negative (+IFNγ) controls and EC50 values were calculated from the fit of the dose—response curves to a four-parameter equation. All EC50 values represent geometric mean values of a minimum of four determinations. These assays generally produced results within 2-fold of the reported mean

T1 sequence (P14902 whole entry): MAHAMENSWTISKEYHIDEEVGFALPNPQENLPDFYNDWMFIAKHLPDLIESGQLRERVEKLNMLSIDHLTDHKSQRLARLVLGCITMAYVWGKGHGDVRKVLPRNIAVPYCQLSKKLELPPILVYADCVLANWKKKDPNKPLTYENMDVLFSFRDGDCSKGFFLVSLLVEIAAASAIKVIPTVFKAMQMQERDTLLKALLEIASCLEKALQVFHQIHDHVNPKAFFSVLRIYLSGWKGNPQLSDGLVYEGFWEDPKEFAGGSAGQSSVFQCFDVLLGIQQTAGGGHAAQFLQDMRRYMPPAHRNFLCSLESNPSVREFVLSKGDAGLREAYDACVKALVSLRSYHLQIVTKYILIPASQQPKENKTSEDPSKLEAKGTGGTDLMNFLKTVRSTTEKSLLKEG

| EC50 [nM] | SMILES |
| --- | --- |
| 491 | CC1(C)Oc2c(-c3ccc(C(F)(F)F)c(C(=O)Nc4ccc(F)cc4)c3)cccc2N(c2ccccn2)C1=O [Example 52, 5-(2,2-dimethyl-3-oxo-4-(pyridin-2-yl)-3,4-dihydro-2H-benzo[b][1,4]oxazin-8-yl)-N-(4-fluorophenyl)-2-(trifluoromethyl)benzamide] |
| 50 | CC1(C)C(=O)N(c2ncccn2)c2nccc(-c3ccc(C(F)(F)F)c(C(=O)Nc4ccc(F)c(F)c4)c3)c21 [Example 50, N-(3,4-difluorophenyl)-5-(3,3-dimethyl-2-oxo-1-(pyrimidin-2-yl)-2,3-dihydro-1H-pyrrolo[2,3-b]pyridin-4-yl)-2-(trifluoromethyl)benzamide] |
| 16 | CC1(C)C(=O)N(c2cn[nH]c2)c2cccc(-c3ccc(C(F)(F)F)c(C(=O)Nc4ccc(F)cc4)c3)c21 [Example 18, 5-(3,3-dimethyl-2-oxo-1-(1H-pyrazol-4-yl)indolin-4-yl)-N-(4-fluorophenyl)-2-(trifluoromethyl)benzamide] |
| 24 | CC1(C)C(=O)N(c2ccncc2)c2cccc(-c3ccc(C(F)(F)F)c(C(=O)Nc4ccc(F)cc4)c3)c21 [Example 8, 5-(3,3-dimethyl-2-oxo-1-(pyridin-4-yl)indolin-4-yl)-N-(4-fluorophenyl)-2-(trifluoromethyl)benzamide] |
| 34 | Cc1ccc(-c2cccc3c2C(C)(C)C(=O)N3c2ccccn2)cc1C(=O)Nc1ccc(F)cc1 [Example 10, 5-(3,3-dimethyl-2-oxo-1-(pyridin-2-yl)indolin-4-yl)-N-(4-fluorophenyl)-2-methylbenzamide] |
| 283 | CC1(C)C(=O)N(c2ncccn2)c2cccc(-c3ccc(C(F)(F)F)c(C(=O)Nc4ccnnc4)c3)c21 [Example 46, 5-(3,3-dimethyl-2-oxo-1-(pyrimidin-2-yl)indolin-4-yl)-N-(pyridazin-4-yl)-2-(trifluoromethyl)benzamide] |
| 98 | CC1(C)C(=O)N(c2ncccn2)c2cccc(-c3ccc(C(F)(F)F)c(C(=O)Nc4cccnc4)c3)c21 [Example 21, 5-(3,3-dimethyl-2-oxo-1-(pyrimidin-2-yl)indolin-4-yl)-N-(pyridin-3-yl)-2-(trifluoromethyl)benzamide] |
| 63 | CC1(C)C(=O)N(c2ccccn2)c2nccc(-c3ccc(C(F)(F)F)c(C(=O)Nc4ccc(F)c(F)c4)c3)c21 [Example 27, N-(3,4-difluorophenyl)-5-(3,3-dimethyl-2-oxo-1-(pyridin-2-yl)-2,3-dihydro-1H-pyrrolo[2,3-b]pyridin-4-yl)-2-(trifluoromethyl)benzamide] |
| 57 | CC1(C)C(=O)N(c2ncccn2)c2cccc(-c3ccc(C(F)(F)F)c(C(=O)Nc4ccc(F)c(Br)c4)c3)c21 [Example 31, N-(3-bromo-4-fluorophenyl)-5-(3,3-dimethyl-2-oxo-1-(pyrimidin-2-yl)indolin-4-yl)-2-(trifluoromethyl)benzamide] |
| 19 | CC1(C)C(=O)N(c2cccnc2)c2cccc(-c3ccc(C(F)(F)F)c(C(=O)Nc4ccc(F)cc4)c3)c21 [Example 7, 5-(3,3-dimethyl-2-oxo-1-(pyridin-3-yl)indolin-4-yl)-N-(4-fluorophenyl)-2-(trifluoromethyl)benzamide] |
| 57 | CC1(C)C(=O)N(c2cccnc2)c2nccc(-c3ccc(C(F)(F)F)c(C(=O)Nc4ccc(F)c(F)c4)c3)c21 [Example 32, N-(3,4-difluorophenyl)-5-(3,3-dimethyl-2-oxo-1-(pyridin-3-yl)-2,3-dihydro-1H-pyrrolo[2,3-b]pyridin-4-yl)-2-(trifluoromethyl)benzamide] |
| 1340 | CC1(C)Oc2c(-c3ccc(C(F)(F)F)c(C(=O)Nc4ccc(F)cc4)c3)cccc2N(c2ncccn2)C1=O [Example 54, 5-(2,2-dimethyl-3-oxo-4-(pyrimidin-2-yl)-3,4-dihydro-2H-benzo[b][1,4]oxazin-8-yl)-N-(4-fluorophenyl)-2-(trifluoromethyl)benzamide] |
| 94 | Cc1ncc(-c2cccc3c2C(C)(C)C(=O)N3c2cccnc2)cc1C(=O)Nc1ccc(F)cc1 [Example 13, 5-(3,3-dimethyl-2-oxo-1-(pyridin-3-yl)indolin-4-yl)-N-(4-fluorophenyl)-2-methylnicotinamide] |
| 19 | Cc1ccc(-c2cccc3c2oc(=O)n3-c2cccnc2)cc1C(=O)Nc1ccc(F)cc1 [Example 34, N-(4-fluorophenyl)-2-methyl-5-(2-oxo-3-(pyridin-3-yl)-2,3-dihydrobenzo[d]oxazol-7-yl)benzamide] |
| 36 | CC1(C)C(=O)N(c2ccccn2)c2nccc(-c3ccc(C(F)(F)F)c(C(=O)Nc4ccc(F)cn4)c3)c21 [Example 28, 5-(3,3-dimethyl-2-oxo-1-(pyridin-2-yl)-2,3-dihydro-1H-pyrrolo[2,3-b]pyridin-4-yl)-N-(5-fluoropyridin-2-yl)-2-(trifluoromethyl)benzamide] |
| 424 | Cc1ccc(-c2cccc3c2C(C)(C)C(=O)N3c2ncccn2)nc1C(=O)Nc1ccc(F)cc1 [Example 41, 6-(3,3-dimethyl-2-oxo-1-(pyrimidin-2-yl)indolin-4-yl)-N-(4-fluorophenyl)-3-methylpicolinamide] |
| 66 | Cc1ncc(-c2cccc3c2C(C)(C)C(=O)N3c2ccccn2)cc1C(=O)Nc1ccc(F)cc1 [Example 12, 5-(3,3-dimethyl-2-oxo-1-(pyridin-2-yl)indolin-4-yl)-N-(4-fluorophenyl)-2-methylnicotinamide] |
| 113 | CC1(C)C(=O)N(c2ncccn2)c2cccc(-c3ccc(C(F)(F)F)c(C(=O)Nc4ccc(F)cc4)n3)c21 [Example 44] |
| 44 | CC1(C)C(=O)N(c2ncccn2)c2cccc(-c3ccc(C(F)(F)F)c(C(=O)Nc4ccncc4)c3)c21 [Example 26, 5-(3,3-dimethyl-2-oxo-1-(pyrimidin-2-yl)indolin-4-yl)-N-(pyridin-4-yl)-2-(trifluoromethyl)benzamide] |
| 11 | CC1(C)C(=O)N(c2ccccn2)c2cccc(-c3ccc(C(F)(F)F)c(C(=O)Nc4ccc(F)cc4)c3)c21 [Example 2, 5-(3,3-dimethyl-2-oxo-1-(pyridin-2-yl)indolin-4-yl)-N-(4-fluorophenyl)-2-(trifluoromethyl)benzamide] |
| 11 | CC1(C)C(=O)N(c2ccncn2)c2cccc(-c3ccc(C(F)(F)F)c(C(=O)Nc4ccc(F)cc4)c3)c21 [Example 3, 5-(3,3-dimethyl-2-oxo-1-(pyrimidin-4-yl)indolin-4-yl)-N-(4-fluorophenyl)-2-(trifluoromethyl)benzamide] |
| 24 | CC1(C)C(=O)N(c2ncccn2)c2cccc(-c3ccc(C(F)(F)F)c(C(=O)Nc4ccc(F)c(F)c4)c3)c21 [Example 30, N-(3,4-difluorophenyl)-5-(3,3-dimethyl-2-oxo-1-(pyrimidin-2-yl)indolin-4-yl)-2-(trifluoromethyl)benzamide] |
| 13 | CC1(C)C(=O)N(c2cc[nH]n2)c2cccc(-c3ccc(C(F)(F)F)c(C(=O)Nc4ccc(F)cc4)c3)c21 [Example 5, 5-(3,3-dimethyl-2-oxo-1-(1H-pyrazol-3-yl)indolin-4-yl)-N-(4-fluorophenyl)-2-(trifluoromethyl)benzamide] |
| 39 | CC1(C)C(=O)N(c2ncccn2)c2cccc(-c3cc(C(=O)Nc4ccc(F)cc4)c(C(F)(F)F)cn3)c21 [Example 25, 2-(3,3-dimethyl-2-oxo-1-(pyrimidin-2-yl)indolin-4-yl)-N-(4-fluorophenyl)-5-(trifluoromethyl)isonicotinamide] |
| 522 | Cc1ncc(-c2cccc3c2C(C)(C)C(=O)N3c2cnccn2)cc1C(=O)Nc1ccc(F)cc1 [Example 15, 5-(3,3-dimethyl-2-oxo-1-(pyrazin-2-yl)indolin-4-yl)-N-(4-fluorophenyl)-2-methylnicotinamide] |
| 810 | CC1(C)C(=O)N(Cc2ncccn2)c2cccc(-c3ccc(C(F)(F)F)c(C(=O)Nc4ccc(F)cc4)c3)c21 [Example 16, 5-(3,3-dimethyl-2-oxo-1-(pyrimidin-2-ylmethyl)indolin-4-yl)-N-(4-fluorophenyl)-2-(trifluoromethyl)benzamide] |
| 101 | CC1(C)Oc2c(-c3ccc(C(F)(F)F)c(C(=O)Nc4ccc(F)cc4)c3)cccc2N(c2cnccn2)C1=O [Example 55, 5-(2,2-dimethyl-3-oxo-4-(pyrazin-2-yl)-3,4-dihydro-2H-benzo[b][1,4]-oxazin-8-yl)-N-(4-fluorophenyl)-2-(trifluoromethyl)benzamide] |
| 10 | CC1(C)C(=O)N(c2ncccn2)c2cccc(-c3ccc(C(F)(F)F)c(C(=O)Nc4ccc(F)cc4)c3)c21 [Compound 1, 5-(3,3-dimethyl-2-oxo-1-(pyrimidin-2-yl)indolin-4-yl)-N-(4-fluorophenyl)-2-(trifluoromethyl)benzamide] |
